According to patent publication US12194201B2, “Silica nanoparticle doped conductive polymer” (University of Pittsburgh—Of the Commonwealth System of …, priority 2019, dated 2025):

Experiments:
[1] = Electrically controlled dye loading and release from PEDOT/SNP films in PBS; format: physicochemical
From the text: Drug loading and release from conducting polymers with electrical control offers a precise method for pharmacological delivery directly to the site of implantation on demand. Mesoporous SNP were employed for drug delivery due to their exceptionally high loading volume. Rhodamine and fluorescein were used as model drugs for quantifying drug release profile. Fluorescein has a negative charge while rhodamine-b is positively charged, and the combination of rhodamine and fluorescein allow for a better understanding of how oppositely charged compounds can be released from PEDOT/SNP films. The drug loading and release mechanism is depicted in FIG. 2. Nanoparticles were suspended in an aqueous solution of fluorescein, rhodamine, or a combination of both, and sonicated to encourage the entry of the dye into the pores. Loaded sulfonate nanoparticles are then collected from solution by centrifuge then resuspended in an aqueous solution of EDOT. PEDOT/SNP films are polymerized under constant current, producing a film of polymer gated silica nanoparticles. An immediate observation made was the ease of polymerization when the dye was loaded into SNPs prior to polymerization vs without SNPs, with electrode potential being substantially lower for electro-polymerization of drug loaded SNP (FIG. 11). After polymerization, electrodes coated with the dye-loaded composite were examined under a fluorescent microscope to observe the release in phosphate buffered saline (PBS) in real time (FIG. 12). A cyclic voltage sweep from 0.8V to −0.6V was used to trigger drug release from the coatings. We observed a halo of fluorescence surrounding the electrode upon stimulation, which dissipates within seconds of the end of stimulation.
We further quantified the amount of release over number of stimuli from PEDOT/SNP composite and compared the performance to a control group of PEDOT loaded with the dye directly without the mesoporous SNP. Control and SNP dopant groups were polymerized to the same charge density. […]

[2] = K3[Fe(CN)6] reduction (Prussian blue) antioxidant assay of released melatonin
Method: 1 mL of solution was removed and added to 0.8 mL of water, followed by the addition of 200 μL of FeCl3(0.01%, 6 μM), creating a deep blue dye. The absorbance of the resulting solution was measured at 700 nm.

[3] = tested on: highly aggressive proliferating immortalized (HAPI) microglia cells; assay: Live/Dead staining of cells on polymer substrate; format: cell-based; settings: 2 days, Triton-X 0.2% positive control on TCPS
Method: A cytotoxicity assessment was performed on the PEDOT/SNP composite. Both PEDOT^[51] and silica nanoparticles^[40] have each been successfully employed in in vivo applications. However, small changes to the surface chemistry of the silica nanoparticle warrant investigation into the potential for adverse biological interactions. The commonly employed polymer PEDOT/PSS itself has been previously characterized as non-toxic;^[52] and was used as an ideal reference for the toxicity testing of the PEDOT/SNP. The biocompatibility of the PEDOT/SNP surface was evaluated by directly culturing highly aggressive proliferating immortalized (HAPI) microglia cells on the substrate. After 2 days, XTT was used to measure to metabolic activity of the cells. […] A small degree of auto-fluorescence is detectable for both polymer coatings, resulting in a slight amount of red and green background. […] Given these findings, we can expect that the PEDOT/SNP surface is safe and non-toxic for acute experimentation, while chronic biocompatibility should still be evaluated. […]
XTT assay was performed as directed by the distributer. […] Cells were incubated for 3 hours and the absorbance of the supernatant was measured at 450 nm. […] Cells were incubated for 1 hour and imaged with fluorescence microscopy.

[4] = tested on: sensory evoked neural activity recorded in barrel cortex; settings: released from PEDOT/CNT films, rat barrel cortex; cited from earlier work
[5] = tested on: neural activity; assay: In vivo DNQX release from PEDOT/SNP coated carbon fiber electrode, GCaMP imaging; settings: DNQX loaded PEDOT/SNP on carbon fiber electrode, reducing potential, GCaMP mouse
From the text: Next, we aimed to modulate cellular activity by release of the glutamate AMPA/Kainate receptor antagonist 6,7-dinitroquinoxaiine-2,3-dione (DNQX). DNQX is a small, negatively charged compound that blocks glutamate transmission. We have previously observed that DNQX may be loaded and electrically released from PEDOT/CNT films in vivo and produce a transient (<6 second) inhibition of sensory evoked neural activity recorded in barrel cortex of rats.^[9] In this study, DNQX release from PEDOT/SNP was assessed using a GCaMP mouse model. The GCaMP fluorescence is tied directly to intracellular calcium activity, such that when neurons fire action potentials, the calcium influx cause GCaMP to produce a bright green fluorescence. […]
All animal work was performed under the guidelines of the University of Pittsburgh Institutional Animal Care and Use Committee (IACUC). […] First, a 2-minute baseline was recorded. […] Following 10 cycles of stimulation, a final 2-minute baseline recording was performed Calculations of fluorescence are made by first masking the electrode. A background fluorescence was determined by averaging all frames together, allowing for representation of small time windows as the % change vs the background intensity as shown below.
The inter-pulse fluorescence was determined by Δf during the reducing voltage, and comparing this to the Δf during the prior oxidative voltage (V>−0.2).

[6] = tested on: 3T3 mouse fibroblast cells; assay: 3T3 viability (XTT) after incubation with released Dox; format: cell-based; settings: 3-day incubation
Method: (§1) Electrochemical methods of drug release may alter the activity of a compound due to the applied potentials, and it is therefore important to verify that the loading and release process doesn't compromise the drug's bioactivity. […] For Dox, a potent chemotherapeutic, release was performed for 0 (passive diffusion for 24 hours), 20, or 200 cycles into serum free DMEM. A small amount of diffusion release was observed from Dox loaded electrodes, as measured by absorbance at […]. […] Released Dox was introduced to cultured 3T3 mouse fibroblast cells (FIG. 7B) and the toxicity was compared to freshly prepared Dox solution at the same concentration. After a 3-day incubation period, the viability of the 3T3 cells was evaluated with the XTT assay. […] Therefore, even though we detected a minute amount of Dox in the diffusion control, this quantity is below the toxic level.
XTT assay was performed as directed by the distributer. In brief, 2,3-Bis-(2-Methoxy-4-Nitro-5-Sulfophenyl)-2H-Tetrazolium-5-Carboxanilide (XTT, Invitrogen, 1 mg ml^−1) was added to culture media. 10 μl of phenazine methosulfate (PMS, 10 mM) was added to XTT/media solution (4 ml) just prior to the addition of XTT solution (50 uL) per well. Cells were incubated for 3 hours and the absorbance of the supernatant was measured at 450 nm. HAPI cells were imaged with a Live/Dead assay (Invitrogen). Supernatant solution was removed and replaced with 1/1000 dilutions for Propidium Iodide and Calcein AM in PBS. Cells were incubated for 1 hour and imaged with fluorescence microscopy.
Dox was loaded and released from PEDOT/SNP films as described above. 3T3 cells were cultured in 48 well plates for 2 days to reach semi-confluency, at which point the culture media was removed and replaced with serum-free media containing stock dox, released dox, or no dox. Cells were culture for 72 h, at which point the media was aspirated and the viability of the cells measured with XTT assay as described above.

[7] = Dox release from PEDOT/SNP film into serum free DMEM; format: physicochemical
Method: as §1
5 mg of mesoporous SNP were sonicated with 200 μl of drug solution for 20 minutes prior to the particles being collected by centrifuge and dried under vacuum.
5 mg of drug loaded particles were suspended in 3 ml of EDOT (0.01M) solution in water. Electropolymerization was carried out for 200 seconds on 2 mm diameter gold electrodes or 70 μm diameter Pt/Ir wires (A-M systems, 90/10 Pt/Ir). Electrodes were then washed with PBS on an orbital shaker for 2 hours then soaked overnight to remove any adsorbed drugs.

CCN(CC)c1ccc2c(-c3ccccc3C(=O)O)c3ccc(=[N+](CC)CC)cc-3oc2c1 [rhodamine, rhodamine-b]
quantified fluorescent intensity during release vs after ([1]; PBS, cyclic voltage sweep 0.8V to −0.6V, dye-loaded PEDOT/SNP): significantly higher | dye release relative to control sample ([1]; over 9,000 (fluorescein) and 5,000 (rhodamine) stimulations, control PEDOT loaded with dye without SNP): substantial increase | Overall drug loading increase when SNP used as a reservoir ([1]; vs PEDOT loaded with the dye directly, same charge density): 16.8 ×

COc1ccc2[nH]cc(CCNC(C)=O)c2c1 [melatonin]
change in absorbance at 700 nm (antioxidant capacity) ([2]; melatonin released from PEDOT/SNP film): significant change in the absorbance | change in absorbance at 700 nm (antioxidant capacity) ([2]; stock melatonin): significant change in the absorbance

Triton-X
Live dead staining of the cells on the substrate [3]: no viable cells

6,7-dinitroquinoxaline-2,3-dione [DNQX]
duration of transient inhibition of sensory evoked neural activity [4]: < 6 s | GCaMP fluorescence intensity during DNQX release vs prior [5]: significant decrease

COc1cccc2c1C(=O)c1c(O)c3c(c(O)c1C2=O)C[C@@](O)(C(=O)CO)C[C@@H]3O[C@H]1C[C@H](N)[C@H](O)[C@H](C)O1 [Dox, Doxorubicin]
effect of released Dox vs concentration-matched stock Dox [6]: no difference | 3T3 viability vs standard culture media ([6]; diffusion control (0 cycles, passive diffusion 24 hours)): No significant difference | 3T3 viability vs control ([6]; released Dox from 20 stimulations): significantly reduced the viability | 3T3 viability vs control ([6]; released Dox from 200 stimulations): significantly reduced the viability | Dox released from PEDOT/SNP film ([7]; 20 stimulations): 1.44 μg cm^−2 | Dox released from PEDOT/SNP film ([7]; 200 stimulations): 7.4 μg cm^−2
